Measurements from US8722717B2, “3-triazolylphenyl-substituted sulphide derivatives as acaricides and insecticides” (Bayer CropScience AG, priority 2009, dated 2014).

What was measured:
[1] = log P by HPLC on reversed-phase C18, phosphoric acid method [a]; assay type: physicochemical; settings: reversed-phase C18 HPLC column; pH 2.3, 0.1% aqueous phosphoric acid and acetonitrile; read-out: logP (H3PO4)
Method: The log P values reported in the table above and in the preparation examples were determined in accordance with EEC Directive 79/831 Annex V.A8 by HPLC (High Performance Liquid Chromatography) on reversed-phase columns (C 18), with the following methods: ^[a] The determination is made in the acid range at pH 2.3 with 0.1% aqueous phosphoric acid and acetonitrile as eluents; linear gradient from 10% acetonitrile to 95% acetonitrile. Calibration took place with unbranched alkan-2-ones (having 3 to 16 carbon atoms) of known log P values (log P values determined from the retention times by linear interpolation between two successive alkanones).

[2] = test system: Boophilus microplus; assay: Boophilus microplus test (BOOPMI injection); assay type: in vivo; settings: injection into the abdomen, 20 μg/animal, after 7 days
Method: Solvent: Dimethyl Sulphoxide An appropriate preparation of active compound is prepared by mixing 10 mg of active compound with 0.5 ml of solvent and diluting the concentrate with solvent to the desired concentration. The solution of active compound is injected into the abdomen (Boophilus microplus) and the animals are transferred into dishes and kept in a controlled atmosphere. The activity is assessed on the basis of deposition of fertile eggs. After 7 days, the effect in % is determined. Here, 100% means that none of the ticks has laid fertile eggs.

[3] = test system: Boophilus microplus; assay: Boophilus microplus (dip); assay type: in vivo; settings: application rate 100 ppm, after 7 days
Method: Solvent: Dimethyl Sulphoxide A quantity of 10 mg of active compound is dissolved in 0.5 ml of dimethyl sulphoxide. To prepare a suitable formulation, the active compound solution is diluted with water to the particular desired concentration. This active compound preparation is pipetted into tubes. A quantity of 8-10 ticks is transferred into a further tube with holes. The tube is immersed in the active compound preparation, with all of the ticks being fully wetted. After the liquid has run off, the ticks are transferred to filter discs in plastic dishes and are kept in a conditioned room. The effect is monitored after 7 days on the basis of deposition of fertile eggs. Eggs whose fertility is not externally visible are stored in glass tubes until the larvae hatch, in a controlled-climate box. An activity of 100% means that none of the ticks has laid fertile eggs.

[4] = test system: greenhouse red spidermite (Tetranychus urticae); assay: Tetranychus test; OP resistant (TETRUR spray treatment), Example 5; assay type: in vivo; settings: foliar, 144 h, spray on bean leaf discs, after 6 days, read-out: effect (100% means that all of the mites have been killed); for pest or weed control at 100 g/ha: application rate 100 g/ha; for pest or weed control at 500 g/ha: application rate 500 g/ha
Method: (§1) Solvents: 78.0 parts by weight of acetone • • 1.5 parts by weight of dimethylformamide Emulsifier: 0.5 part by weight of alkylaryl polyglycol ether An appropriate preparation of active compound is prepared by mixing 1 part by weight of active compound with the stated amounts of solvent and emulsifier and diluting the concentrate with emulsifier-containing water to the desired concentration. Leaf discs of bean (Phaseolus vulgaris) infested by all stages of the greenhouse red spidermite (Tetranychus urticae) are sprayed with a preparation of active compound at the desired concentration. After 6 days, the effect in % is determined. Here, 100% means that all of the mites have been killed; 0% means that no mites have been killed.

[5] = log P by HPLC/LC-MS on reversed-phase C18, formic acid method [b]; assay type: physicochemical; settings: reversed-phase C18 HPLC column; pH 2.7, 0.1% aqueous formic acid and acetonitrile; read-out: logP (HCOOH)
Method: The log P values reported in the table above and in the preparation examples were determined in accordance with EEC Directive 79/831 Annex V.A8 by HPLC (High Performance Liquid Chromatography) on reversed-phase columns (C 18), with the following methods: ^[b] The determination is made by LC-MS in the acid range at pH 2.7 with 0.1% aqueous formic acid and acetonitrile (containing 0.1% formic acid) as eluents; linear gradient from 10% acetonitrile to 95% acetonitrile. Calibration took place with unbranched alkan-2-ones (having 3 to 16 carbon atoms) of known log P values (log P values determined from the retention times by linear interpolation between two successive alkanones).

[6] = test system: larvae of the mustard beetle (Phaedon cochleariae); assay: Phaedon test (PHAECO spray treatment); assay type: in vivo; settings: foliar, spray on Chinese cabbage leaf discs, application rate 500 g/ha, read-out: effect (100% means that all of the beetle larvae have been killed)
Method: Solvents: 78.0 parts by weight of acetone • • 1.5 parts by weight of dimethylformamide Emulsifier: 0.5 part by weight of alkylaryl polyglycol ether An appropriate preparation of active compound is prepared by mixing 1 part by weight of active compound with the stated amounts of solvent and emulsifier and diluting the concentrate with emulsifier-containing water to the desired concentration. Leaf discs of Chinese cabbage (Brassica pekinensis) are sprayed with a preparation of active compound at the desired concentration and, after they have dried, are populated with larvae of the mustard beetle (Phaedon cochleariae). After the desired time, the effect in % is determined. Here, 100% means that all of the beetle larvae have been killed; 0% means that no beetle larvae have been killed.

[7] = test system: greenhouse red spidermite (Tetranychus urticae); assay: Tetranychus test; OP resistant (TETRUR spray treatment), Example 7, comparison with prior art; assay type: in vivo; settings: 6 d
Method: as §1, with “the desired time,” for “6 days,”

[8] = test system: Meloidogyne incognita; assay: Meloidogyne incognita test (MELGIN); assay type: in vivo; settings: application rate 20 ppm, lettuce in sand, after 14 days
Method: Solvents: 80.0 parts by weight of acetone An appropriate preparation of active compound is prepared by mixing 1 part by weight of active compound with the stated amounts of solvent and emulsifier and diluting the concentrate with water to the desired concentration. Pots are filled with sand, solution of active compound, meloidogyne incognita egg/larvae suspension, and lettuce seeds. The lettuce seeds germinate and the plants develop. On the roots, the galls develop. After 14 days, the nematicidal effect is determined from the gall formation, in %. Here, 100% means that no galls were found; 0% means that the number of galls on the treated plants corresponds to that for the untreated control.

[9] = test system: green peach aphid (Myzus persicae); assay: Myzus test (MYZUPE spray treatment); assay type: in vivo; settings: spray on Chinese cabbage leaf discs, application rate 500 g/ha, after 6 days
Method: as §1, with “Solvent: 78” for “Solvents: 78.0”, “Chinese cabbage (Brassica pekinensis)” for “bean (Phaseolus vulgaris)”, “green peach aphid (Myzus persicae)” for “greenhouse red spidermite (Tetranychus urticae)”, “aphids” for “mites”

SMILES	pest or weed control at 100 g/ha [4] [%]	pest or weed control at 500 g/ha [4] [%]	chromatographic logP [5]	pest or weed control at 500 g/ha [6] [%]	other results
Cc1cc(C)c(-n2cnc(C(F)(F)F)n2)cc1SCC(F)(F)C(F)(F)F [I-A-4]	100	100	–	–	chromatographic logP [1]: 4.49; activity (100% means that none of the ticks has laid fertile eggs) [2]: 100%; activity (100% means that none of the ticks has laid fertile eggs) [3]: 90%
Cc1cc(F)c(-n2cnc(C(F)(F)F)n2)cc1SCC(F)(F)C(F)F [I-A-24]	100	–	3.87	100	–
Cc1ccc(-n2cnc(C(F)(F)F)n2)c(C)c1 [IV-A-1, 3-(Trifluoromethyl)-1-(2,4-dimethylphenyl)-1H-1,2,4-triazole]	–	–	3.19	–	–
Cc1cc(C)c([S+]([O-])CCC(F)(F)F)cc1-n1cnc(C(F)(F)F)n1 (stereo not drawn) [I-A-7]	90	–	2.86	–	–
Cc1cc(C)c([S+]([O-])CC(F)(F)C(F)(F)F)cc1-n1cnc(C(F)(F)F)n1 (stereo not drawn) [I-A-10]	–	100	–	–	chromatographic logP [1]: 3.29
Cc1cc(C)c([S+]([O-])CC(F)F)cc1-n1cnc(C(F)(F)F)n1 (stereo not drawn) [I-A-2, 3-(trifluoromethyl)-1-{2,4-dimethyl-5-[(2,2-difluoroethyl)sulphinyl]phenyl}-1H-1,2,4-triazole]	100	–	2.41	–	activity (100% means that none of the ticks has laid fertile eggs) [2]: 100%
Cc1cc(C)c(-n2cnc(C(F)(F)F)n2)cc1SCC(F)(F)F [VI -297, reference compound]	–	–	–	–	% effect after application ([7]; 4 g/ha): 0%; % effect after application ([7]; 20 g/ha): 70%
Cc1cc(C)c([S+]([O-])CC#N)cc1-n1cnc(C(F)(F)F)n1 (stereo not drawn) [I-A-8]	–	100	2.07	–	–
Cc1cc(F)c(-n2cnc(C(F)(F)F)n2)cc1[S+]([O-])CC(F)(F)C(F)F (stereo not drawn) [I-A-18]	100	–	2.79	100	–
Cc1cc(C)c(-n2cnc(C(F)(F)F)n2)cc1SCC#N [I-A-9]	100	–	3.08	–	–
Cc1cc(F)c(-n2cnc(C(F)(F)F)n2)cc1SCC#N [I-A-13]	–	100	2.93	–	–
Cc1cc(Cl)c(-n2cnc(C(F)(F)F)n2)cc1SCC(F)F [I-A-16]	100	–	3.75	100	–
Cc1cc(Cl)c(-n2cnc(C(F)(F)F)n2)cc1SCC(F)(F)C(F)F [I-A-17]	100	–	4.06	100	–
Cc1cc(Cl)c(-n2cnc(C(F)(F)F)n2)cc1[S+]([O-])CC(F)(F)C(F)F (stereo not drawn) [I-A-23]	–	100	3.01	100	–
Cc1cc(Cl)c(-n2cnc(C(F)(F)F)n2)cc1[S+]([O-])CC#N (stereo not drawn) [I-A-11]	–	100	2.17	–	nematicidal effect from gall formation (100% means that no galls were found) [8]: 90%
Cc1cc(C)c(-n2cnc(C(F)(F)F)n2)cc1SCC(F)F [I-A-1, 3-(trifluoromethyl)-1-{2,4-dimethyl-5-[(2,2-difluoroethyl)sulphanyl]phenyl}-1H-1,2,4-triazole]	100	–	3.74	–	activity (100% means that none of the ticks has laid fertile eggs) [2]: 100%
Cc1cc(Cl)c(-n2cnc(C(F)(F)F)n2)cc1[S+]([O-])CC(F)(F)C(F)(F)F (stereo not drawn) [I-A-14]	–	100	3.4	100	–
Cc1cc(F)c(-n2cnc(C(F)(F)F)n2)cc1SCC(F)(F)C(F)(F)F [I-A-22]	100	–	4.4	–	–
Cc1cc(F)c(-n2cnc(C(F)(F)F)n2)cc1[S+]([O-])CC(F)(F)C(F)(F)F (stereo not drawn) [I-A-25]	100	–	3.22	100	–
Cc1cc(C)c(-n2cnc(C(F)(F)F)n2)cc1SCCC(F)(F)F [I-A-20]	100	–	4.32	–	activity (100% means that all of the aphids have been killed) [9]: 100%
Cc1cc(Cl)c(-n2cnc(C(F)(F)F)n2)cc1SCC#N [I-A-12]	–	100	3.12	–	–
Cc1cc(F)c(-n2cnc(C(F)(F)F)n2)cc1[S+]([O-])CC#N (stereo not drawn) [I-A-15]	–	100	1.99	–	–
Cc1cc(F)c(-n2cnc(C(F)(F)F)n2)cc1SCC(F)F [I-A-6]	100	–	3.57	100	–
Cc1cc(Cl)c(-n2cnc(C(F)(F)F)n2)cc1SCC(F)(F)C(F)(F)F [I-A-26]	90	–	4.57	–	–
Cc1cc(C)c([S+]([O-])CC(F)(F)C(F)F)cc1-n1cnc(C(F)(F)F)n1 (stereo not drawn) [I-A-5]	–	100	–	–	chromatographic logP [1]: 2.88; activity (100% means that none of the ticks has laid fertile eggs) [2]: 100%; activity (100% means that all of the aphids have been killed) [9]: 90%
Cc1cc(C)c(-n2cnc(C(F)(F)F)n2)cc1SCC(F)(F)C(F)F [I-A-3]	–	100	–	–	chromatographic logP [1]: 3.98; activity (100% means that none of the ticks has laid fertile eggs) [2]: 100%; activity (100% means that none of the ticks has laid fertile eggs) [3]: 90%
Cc1cc(Cl)c(-n2cnc(C(F)(F)F)n2)cc1[S+]([O-])CC(F)F (stereo not drawn) [I-A-21]	–	100	2.54	–	–
Cc1cc(F)c(-n2cnc(C(F)(F)F)n2)cc1[S+]([O-])CC(F)F (stereo not drawn) [I-A-19]	100	–	2.33	100	–
